Data: patent US11180486B2, “Indolylkojyl methane analogues, process of preparation thereof and use as inhibitor of cancer cells invasion and metastasis” (Council of Scientific & Industrial Research, priority 2017, dated 2021)
Where two headings read alike, the source gives them in different places.

Assays:
[1] = tested on: MCF7 cells; assay: Cell viability (MTT) assay; assay type: cell-based; conditions: Homo sapiens
Protocol: (§1) Cell Culture and Reagents. The cell lines used in this study were procured from American Type Culture Collection (ATCC), Manassas, USA. MCF7, T47D and fR2 cells were cultured in RPMI-1640 medium, whereas the MDA-MB-231 cells were grown in Leibovitz's (L-15) medium supplemented with 10% fetal bovine serum (Gibco) and 1% penicillin/streptomycin (Sigma) in a humidified CO2 incubator (New Brunswick Galaxy 170 R) with 5% CO2. Reagents such as phenylmethylsulfonyl fluoride (PMSF), dithiothreitol (DTT), DMSO, crystal violet, and Bradford's reagent were purchased from Sigma-Aldrich. Protease inhibitor cocktail was procured from Roche. The antibodies for human GRP78, Par-4, MMP-2, MMP-9, NF-kB, E-cadherin and TIMP-1 were procured from Santa-Cruz Biotechnology. The β-actin antibody and the secondary antibodies such as anti-rabbit IgG and anti-mouse IgG were procured from Sigma-Aldrich.
(§2) Cell Viability Assay. The cell viability was determined by standard MTT assay method. Briefly, MDA-MB-231, MCF7, T47D and fR2 cells were seeded in 96 well tissue culture plates (Nunc) at a density of 3×10^3 cells per well and treated with varying concentrations of the test compounds in triplicates. DMSO was taken as a vehicle and the final concentration of the DMSO was maintained at 0.2% in the culture medium. Doxorubicin was employed as a positive control. After 44 h of incubation, MTT dye solution was added into the medium and cells were incubated for another 4 h at 37° C. in 5% CO2. The amount of coloured formazan derivatives formed was measured by taking optical density (OD) using a microplate reader (TECAN, Infinite M200 Pro) at 570 nm and the percentage cell viability was calculated. The IC50 values were calculated using GraphPad Prism software (Version 5.0). Table 2. Cytotoxicity (IC50) of all synthesized compounds of invention against panel of human breast cancer cell lines (MDA-MB-231, MCF7, T47D) and normal breast epithelial (fR2) cells.

[2] = tested on: MDA-MB-231 cells; assay: Cell viability (MTT) assay; assay type: cell-based; conditions: Homo sapiens
Protocol: as §1, §2

[3] = tested on: T47D cells; assay: Cell viability (MTT) assay; assay type: cell-based; conditions: Homo sapiens, 44 h + 4 h, mean ± SD of three experiments
Protocol: as §1, §2

[4] = tested on: MCF7 cells; assay: Migration (wound closure) assay; assay type: cell-based, human; conditions: after 48 h of incubation
Protocol: (§3) Migration Assay. The experiment was performed according to the pre-standardized procedure (Rah et al., 2012, PloS one, 7(9). p.e44039). MDA-MB-231 and MCF7 cells were plated in 6-well plates at a concentration of (1×10^6 cells/well) and allowed to form a confluent monolayer for 24 h. On the next day, the monolayer was scratched with a sterile pipette tip (20-200 μl) and washed with serum free medium to remove the detached cells. […] Wounded areas were progressively photographed under an inverted microscope with Nikon D3100 camera at 20× magnification. […]

[5] = tested on: MDA-MB-231 cells; assay: Migration (wound closure) assay; assay type: cell-based, human; conditions: after 48 h of incubation
Protocol: as §3

[6] = tested on: MCF7 cells; assay: Matrigel invasion assay; assay type: cell-based; conditions: Homo sapiens, 200 nM, 24 h, vs vehicle
Protocol: (§4) Matrigel Invasion Assay. The effect of compound 5 on invasion capability of breast cancer cells was evaluated using BD Biocoat Tumor Invasion Assay System (BD Bioscience, Bedford, Mass.) according to the manufacturer's instruction. Briefly, MDA-MB-231 and MCF7 cells (1×10^6) cells were cultured in the presence of 200 nM of compound 5, along with doxorubicin and vehicle for 24 h in serum free media in the upper chambers/inserts, and the bottom wells were filled with chemo-attractant (complete media with 10% FBS). Cells were allowed to migrate at 37° C. and 5% CO2. After 24 h, the matrigel-coated polycarbonate filters were removed, the non-migrating cells were separated from the upper chamber with a cotton swab and the inserts were fixed with methanol and stained with 0.25% crystal violet solution. For each replicate (n=3), migration of the cells was quantified by counting the stained cells (cells per five random fields) under an inverted microscope (Amin et al., 2015, Mol. Carcinog).

[7] = tested on: MDA-MB-231 cells; assay: Matrigel invasion assay; assay type: cell-based; conditions: Homo sapiens, 200 nM, 24 h, vs vehicle
Protocol: as §4

[8] = tested on: TIMP-1; assay: Immunoblotting, expression of TIMP-1; assay type: cell-based, human; conditions: MDA-MB-231 cells; dose dependent
Protocol: Immunoblotting. MDA-MB-231 and MCF7 cells (0.5×10^6) were plated in six well plates for overnight in a humidified CO2 incubator and then exposed to varying concentrations of 5 (50, 100 and 200 nM) for 24 h along with vehicle (dose dependent study) and 200 nM of 5 for various time points like; 0, 6, 12, 24 and 48 h (time dependent study). Cells were then harvested, washed with chilled PBS and lysed with lysis buffer (HEPES 1 mM, KCl 60 mM, NP-40 0.3%, EDTA 1 mM, DTT 1 mM, sodium orthovanadate 1 mM, PMSF 0.1 mM and cocktail protease inhibitor). The cell extractions were centrifuged at 12,000 rpm for 10 min at 4° C. Protein concentration was measured by the standard Bradford method. An equal amount (20 μg) of protein from each sample was subjected to SDS-PAGE, and proteins were transferred to PVDF membranes (PALL), blocked with 5% (w/v) non-fat milk in PBS containing 0.1% Tween-20, probed with relevant antibodies (1:1000 dilution) for 3 h at room temperature or overnight at 4° C., and subsequently washed and probed with species-specific secondary antibodies coupled to horseradish peroxidase. Immunoreactive proteins were detected by Enhanced Chemiluminescence Plus (Thermo) (Rah et al., 2012, PloS one, 7(9), p.e44039.).

CCCCCCCC(c1oc(CO)cc(=O)c1O)c1c[nH]c2ccccc12 (centres unmarked) [Compound 5, 2-{1-(1H-indol-3-yl)octyl}-3-hydroxy-6-(hydroxymethyl)-4H-pyran-4-one]
IC50 ([1]; MCF7, 44 h + 4 h, mean ± SD of three experiments, read-out: IC50 values MCF7): 0.15 ± 0.095 µM
IC50 ([1]; MCF7, read-out: IC50 in MCF7): 0.15 µM
IC50 ([2]; MDA-MB-231, 44 h + 4 h, mean ± SD of three experiments, read-out: IC50 values MDA-MB-231): 0.209 ± 0.265 µM
IC50 ([2]; MDA-MB-231, read-out: IC50 in MDA-MB-231): 0.209 µM
IC50 [3]: 3.45 µM
IC50 ([3]; 48 h): 3.45 µM
suppressed migration [4]: 55.4%
suppressed migration [5]: 57.3%
inhibition at 0.2 µM [6]: 79%
inhibition at 0.2 µM [7]: 67%
expression of TIMP-1 [8]: induced significantly
